These results are taken from patent publication US20170204380A1, “GLYCOSYL TRANSFERASES AND THEIR USES” (TECHNISCHE UNIVERSITAT MUNCHEN, priority 2014, published 2017).

Changes are numbered by the printed parent chain. Like-named read-outs stand apart in the source and are kept apart here.

For data set [1], the target named is T1, VvGT16 (Vitis vinifera, UniProt F6HTJ4). The data set can be described thus: Substrate screening, radiochemical analysis with UDP-[14C]glucose. Type of data set: biochemical. The protocol: (§1) In the initial screening, each reaction mixture (200 μL in total) contained Tris-HCl buffer (100 mM, pH 8, 10 mM 2-mercaptoethanol), 37 pmol UDP-[^14C]glucose (0.01 μCi, Biotrend, Köln, Germany), substrate (50 μL of a 1 mg/mL stock solution) and purified protein (0.5-0.8 μg/μL). […] The organic phase was mixed with 2 mL Pro Flow P+ cocktail (Meridian Biotechnologies Ltd., Epsom, UK) and radioactivity was determined by liquid scintillation counting (LSC, Tri-Carb 2800TR, Perkin Elmer, Waltham Mass., USA). Additionally, negative controls without substrate were performed.
T1 sequence (F6HTJ4 entry or part of it): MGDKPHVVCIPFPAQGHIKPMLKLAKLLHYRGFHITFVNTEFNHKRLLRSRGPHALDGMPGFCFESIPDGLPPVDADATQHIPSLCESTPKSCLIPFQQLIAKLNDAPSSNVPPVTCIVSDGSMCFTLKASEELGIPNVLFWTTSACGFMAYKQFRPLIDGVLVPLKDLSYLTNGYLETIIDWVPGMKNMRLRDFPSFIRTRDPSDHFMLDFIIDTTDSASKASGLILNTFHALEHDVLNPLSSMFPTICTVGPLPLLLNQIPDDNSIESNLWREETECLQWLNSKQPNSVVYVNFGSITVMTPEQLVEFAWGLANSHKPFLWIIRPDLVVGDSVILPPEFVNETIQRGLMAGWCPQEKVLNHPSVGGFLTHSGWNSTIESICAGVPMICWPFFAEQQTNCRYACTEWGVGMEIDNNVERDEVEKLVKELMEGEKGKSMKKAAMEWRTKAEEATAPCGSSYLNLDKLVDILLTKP
(§2) The recombinant proteins were expressed with an N-terminal GST-tag, affinity purified and verified by SDS-PAGE and Western Blot using GST-specific antibody.

Data set [2] concerns the target T2, VvGT14a (Vitis vinifera, UniProt F6H0R6). The description is as above. It is filed as biochemical. How it is done:
as §1, §2

The target of data set [3] is T3, VvGT15c (Vitis vinifera, UniProt A0ABY9C1E0). The data set is described as above. It is filed as biochemical. How it is done: as §1, §2
T3 sequence (A0ABY9C1E0 entry or part of it): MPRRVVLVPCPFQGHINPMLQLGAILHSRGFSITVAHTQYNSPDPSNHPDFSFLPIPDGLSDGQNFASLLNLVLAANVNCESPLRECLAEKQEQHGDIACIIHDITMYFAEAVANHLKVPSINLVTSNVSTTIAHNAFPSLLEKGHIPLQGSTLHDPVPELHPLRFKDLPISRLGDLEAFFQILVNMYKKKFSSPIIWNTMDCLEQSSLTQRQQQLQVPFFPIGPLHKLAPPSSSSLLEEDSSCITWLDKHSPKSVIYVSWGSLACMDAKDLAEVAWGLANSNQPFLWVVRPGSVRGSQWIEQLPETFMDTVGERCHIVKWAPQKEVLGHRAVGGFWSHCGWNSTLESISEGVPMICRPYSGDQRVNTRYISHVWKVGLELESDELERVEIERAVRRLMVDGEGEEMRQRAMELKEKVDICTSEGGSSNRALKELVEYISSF
The target in data set [4] is T4, VvGT15a (Vitis vinifera, UniProt A0ABY9C1E0). The description is as above. Type of data set: biochemical. How it is done:
as §1, §2

The target of data set [5] is T5, VvGT15b (Vitis vinifera, UniProt A0ABY9C1E0). Described as above. It is filed as biochemical. How it is done:
as §1, §2

In data set [6] the target is T1, VvGT16. The note with it: UDP-glucose fixed 512.5 μM (for UDP-glucose: geraniol fixed 1.25 mM), Tris-HCl pH 8.5, 30° C. How it is done:
(§3) The measurements were performed under the following conditions. […] Radioactivity was determined by LSC.

Data set [7] concerns the target T3, VvGT15c. Type of data set: biochemical. The note with it: UDP-glucose fixed 833 μM (for UDP-glucose: geraniol fixed 1.25 mM), Tris-HCl pH 7.5, 30° C. How it is done:
as §3

Data set [8] deals with T4, VvGT15a. Type of data set: biochemical. The note with it: UDP-glucose fixed 833 μM (for UDP-glucose: geraniol fixed 1.25 mM), Tris-HCl pH 7.5, 30° C. How it is done: as §3
Data set [9] concerns the target T5, VvGT15b. It is filed as biochemical. The note with it: UDP-glucose fixed 833 μM (for UDP-glucose: geraniol fixed 1.25 mM), Tris-HCl pH 7.5, 30° C. The protocol:
as §3

The target in data set [10] is T2, VvGT14a. The note with it: for kcat/KM of VvGT14a higher than the value for UGT85B1 from Sorghum bicolor: VvGT14a versus UGT85B1; for Km / kcat: pH 8.5.
Data set [11] has as its system CaUGT2. The settings on record: CaUGT2, natural substrate; cited from earlier work.
Data set [12] relates to UGT71G1. The settings on record: cited from earlier work.
Data set [13] relates to VvGT6. The note with it: cited from earlier work.
Data set [14] deals with VvGT5. The settings on record: cited from earlier work.
For data set [15], the target named is T6, VvGT1 (Vitis vinifera, UniProt P51094).
T6 sequence (P51094 1-456): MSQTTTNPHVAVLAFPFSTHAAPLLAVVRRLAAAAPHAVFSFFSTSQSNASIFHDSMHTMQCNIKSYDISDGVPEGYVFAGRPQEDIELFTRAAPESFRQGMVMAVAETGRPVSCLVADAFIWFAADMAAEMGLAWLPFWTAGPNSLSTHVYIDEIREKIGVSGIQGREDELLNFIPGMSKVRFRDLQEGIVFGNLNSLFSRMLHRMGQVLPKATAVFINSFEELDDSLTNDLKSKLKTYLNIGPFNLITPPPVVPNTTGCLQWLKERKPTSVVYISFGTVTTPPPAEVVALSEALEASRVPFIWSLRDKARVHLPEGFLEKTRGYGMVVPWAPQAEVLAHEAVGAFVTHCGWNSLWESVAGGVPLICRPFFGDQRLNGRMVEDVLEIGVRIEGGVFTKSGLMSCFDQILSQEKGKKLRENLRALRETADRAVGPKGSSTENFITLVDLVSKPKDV
The note with it: VvGT1, natural substrate; cited from earlier work.

Substrate in data set [16]: CC(C)=CCC/C(C)=C\CO
The data set can be described thus: purified protein, by the assay type. It is filed as biochemical, Vitis vinifera. The settings on record: UDP-glucose fixed 833 μM (for UDP-glucose: geraniol fixed 1.25 mM), Tris-HCl pH 7.5, 30° C.

Substrate in data set [17]: CC(C)=CCC[C@H](C)CCO
The experiment in a line: purified protein, by the assay type. The note with it: UDP-glucose fixed 833 μM (for UDP-glucose: geraniol fixed 1.25 mM), Tris-HCl pH 7.5, 30° C.

The kcat is the maximal rate divided by the concentration of active sites. Broadly, the Km is the substrate concentration at which the rate is half of its maximum. Usually kcat/Km stands for the turnover number divided by the Michaelis constant.

T2 sequence (F6H0R6 entry or part of it): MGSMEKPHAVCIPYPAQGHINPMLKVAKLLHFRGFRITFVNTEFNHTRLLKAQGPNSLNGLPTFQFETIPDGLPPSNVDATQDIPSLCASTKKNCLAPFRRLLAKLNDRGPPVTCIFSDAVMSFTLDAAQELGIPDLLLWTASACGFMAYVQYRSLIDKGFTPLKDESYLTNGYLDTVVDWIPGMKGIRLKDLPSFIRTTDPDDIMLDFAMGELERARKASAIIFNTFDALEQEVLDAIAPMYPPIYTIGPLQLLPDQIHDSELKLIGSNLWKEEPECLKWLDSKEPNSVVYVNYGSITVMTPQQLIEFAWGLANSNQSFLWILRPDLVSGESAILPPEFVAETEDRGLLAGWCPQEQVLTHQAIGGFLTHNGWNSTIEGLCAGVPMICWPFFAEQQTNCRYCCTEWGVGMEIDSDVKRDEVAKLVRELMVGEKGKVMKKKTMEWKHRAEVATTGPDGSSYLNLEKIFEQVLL
T5 sequence (A0ABY9C1E0 entry or part of it): as the sequence (A0ABY9C1E0 entry or part of it) above

Regarding `CC(C)=CCO` [3-methyl-2-butenol], the “conversion as substrate (in words)” value in data set [1] is recorded as “transformed”; in [2], “catalytic activity”.

On to `C=C(C)CCO` [3-methyl-3-butenol], for which the “conversion as substrate (in words)” value in data set [2] was “catalytic activity”.

With `C=CC(C)(O)CC/C=C(\C)CO` (stereo not shown) [8-hydroxylinalool], the results for the “conversion as substrate (in words)” value in data set [3], in data set [4] and in data set [2] were “able to use”, “able to use” and “catalytic activity”, respectively.

Regarding `CC(C)=CCC/C(C)=C/CO` [Geraniol, (E)-3,7-dimethyl-2,6-octadien-1-ol], the “conversion as substrate (in words)” value in [3] is given as “glucosylated primarily”; in data set [4], “glucosylated primarily”; in data set [2], “preferred”; in data set [5], “glucosylated primarily”. For the same molecule, the kcat was found to be 0.015 s⁻¹ in data set [6]; 0.17 s⁻¹ in [7]; 0.12 s⁻¹ in data set [8]; 0.10 s⁻¹ in [9]; 0.1 s⁻¹ in data set [9] (listed as geraniol); 0.02 s⁻¹ in [10]. Moreover, the Km in [7] was 43 µM; in data set [8], 63 µM; in data set [9] it was 81 µM; in data set [10], 9 µM. The “kcat/KM of VvGT14a higher than the value for UGT85B1 from Sorghum bicolor” value in data set [10] was found to be 4 fold.

On to `CC(C)=CCC/C(C)=C\CO` [Nerol, (Z)-3,7-dimethyl-2,6-octadien-1-ol], for which the “conversion as substrate (in words)” value is listed as “transformed” in data set [1], “glucosylated primarily” in [3], “glucosylated primarily” in [4] and “glucosylated primarily” in [5]. In addition, the kcat in [6] came to 0.009 s⁻¹; in data set [10], 0.02 s⁻¹. In addition, the “kcat/KM of VvGT14a higher than the value for UGT85B1 from Sorghum bicolor” value in data set [10] stood at 40 fold. Also, the Km in [10] is 10 µM.

Take `OCc1ccccc1` [benzyl alcohol]: the “conversion as substrate (in words)” value was “highest relative activity” in data set [1] and “catalytic activity” in data set [2].

Take `CC/C=C\CCO` [cis 3-hexenol]: the results for the “conversion as substrate (in words)” value in data set [1] and in data set [2] were “transformed” and “catalytic activity”, respectively.

Take `COc1cc(/C=C/C(=O)CC(=O)/C=C/c2ccc(O)c(OC)c2)ccc1O` [curcumin]: in data set [11], the Km is 43.9 µM and the kcat is 0.0165 s⁻¹.

As to `C=CCc1ccc(O)c(OC)c1` [eugenol], the “conversion as substrate (in words)” value in data set [2] is listed as “catalytic activity”.

For `CC(C)=CCCC(C)=CCCC(C)=CCO` [farnesol], the “conversion as substrate (in words)” value in data set [4] is “low activity”; in data set [2], “catalytic activity”.

`CCCCCCO` [hexanol]: the “conversion as substrate (in words)” value in data set [3], in data set [4] and in data set [5] was “glucosylated primarily” each time.

With `N#CC(O)c1ccccc1` (stereo not shown) [mandelonitrile], the “conversion as substrate (in words)” value in [3] is “not accepted at all”; in data set [4] it was “not accepted at all”; in [2] it was “catalytic activity”; in data set [2] (listed as Mandelonitrile) it was “poor substrate”; in data set [5] it was “not accepted at all”.

In the case of `CCCCCCCCO` [octanol], the “conversion as substrate (in words)” value in data set [3], in data set [4] and in [5] was “glucosylated primarily” in each case.

With `O=c1c(O)c(-c2ccc(O)c(O)c2)oc2cc(O)cc(O)c12` [quercetin], the Km in data set [12] was 57 µM; in data set [13], 9.24 µM; in [14] it was 5.6 µM; in data set [15], 31 µM. Further, the kcat in [12] was 0.0175 s⁻¹; in data set [13], 0.76 s⁻¹; in [14], 7.16 s⁻¹; in [15] it was 0.075 s⁻¹.

In the case of `CCC/C=C/CO` [trans 2-hexenol], the “conversion as substrate (in words)” value is given as “transformed” in data set [1], “able to use” in data set [3], “able to use” in data set [4] and “catalytic activity” in [2].

B1: VvGT15a (Vitis vinifera) (protein)
chain: MPRRVVLVPCPFQGHINPMLQLGAILHSRGFSITVAHTQYNSPDPSNHPDFSFLPIPDGLSDGQNFASLLNLVLAANVNCESPLREYLAEKQEQHGDIACIIHDITMYFAEAVANHLKVPSINLVTSNVSTTIAHNAFPSLLEKGHIPLQGSTLHDPVPELHPLRFKDLPISRLGDLEVFFQILVNMYKKKFSSPIIWNTMDCLEQSSLTQRQQQLQVPFFPIGPLHKLAPPSSSSLLEEDSSCITWLDKQSPKSVIYVSWGSLACMDAKDLAEVAWGLANSNQPFLWVVRPGSVRGSQWIEQLPETFMDTVGERCHIVKWAPQKEVLGHRAVGGFWSHCGWNSTLESISEGVPMICRPYSGDQRVNTRYISHVWKVGLELESDELERVEIERAVRRLMVDGEGEEMRQRAMELKEKVEICTSEGGSSNRALKELVEYISSF
With B1, in [16] (other: VvGT15a), the Km was determined as 48 ± 1.7 µM, the kcat is 0.04 s⁻¹ and the catalytic efficiency (kcat/Km) turned out to be 700 M⁻¹ s⁻¹. Besides, in data set [17] (other: VvGT15a), the Km was 29 ± 3.0 µM, the turnover number (kcat) came out at 0.02 s⁻¹ and the kcat/Km stood at 900 M⁻¹ s⁻¹.

B2: VvGT15c (Vitis vinifera) (protein)
chain: B1 chain with Y87C, V179A, Q251H, E419D
On to B2, for which, in [16] (other: VvGT15c), the Km amounted to 28 ± 0.9 µM, the kcat stood at 0.06 s⁻¹ and the kcat/Km worked out at 2200 M⁻¹ s⁻¹. Moreover, in [17] (other: VvGT15c), the Km amounted to 20 ± 1.6 µM, the kcat stood at 0.03 s⁻¹ and the kcat/Km was 1800 M⁻¹ s⁻¹.

B3: VvGT15b (Vitis vinifera) (protein)
chain: B1 chain with Y87C, V179A, Q251H, E419D
For B3, in [16] (other: VvGT15b), the Km was determined as 40 ± 3.7 µM, the kcat was found to be 0.03 s⁻¹ and the kcat/Km was determined as 800 M⁻¹ s⁻¹. For the same molecule, in [17] (other: VvGT15b), the Km was found to be 55 ± 1.3 µM, the kcat came to 0.03 s⁻¹ and the kcat/Km is 600 M⁻¹ s⁻¹.
